In patent US10118935B2, “Melampomagnolide B dimers” (priority 2014, dated 2018):

Assays:
NCI-H522 = test: NCI 60 cell line five dose, Non-Small Cell Lung Cancer
OVCAR-5 = test: NCI 60 cell line five dose, Ovarian Cancer
U251 = test: NCI 60 cell line five dose, CNS Cancer
LOX IMVI = test: NCI 60 cell line five dose, Melanoma
SK-MEL-5 = test: NCI 60 cell line five dose, Melanoma
786-0 = test: NCI 60 cell line five dose, Renal Cancer
SNB-75 = test: NCI 60 cell line five dose, CNS Cancer
DU-145 = test: NCI 60 cell line five dose, Prostate Cancer
NCI-H460 = test: NCI 60 cell line five dose, Non-Small Cell Lung Cancer
CAKI-1 = test: NCI 60 cell line five dose, Renal Cancer
RPMI-8226 = test: NCI 60 cell line five dose, Leukemia
HOP-92 = test: NCI 60 cell line five dose, Non-Small Cell Lung Cancer

Question: Which results are given for `C=C1C(=O)O[C@H]2[C@H]1CC/C(COC(=O)NCCCCCCCCNC(=O)OC/C1=C/CC[C@@]3(C)O[C@H]3[C@H]3OC(=O)C(=C)[C@@H]3CC1)=C\CC[C@@]1(C)O[C@@H]21` [JVM 3-62, bis(((1aR,7aS, 10aS, 10bS, E)-1a-Methyl-8-methylene-9-oxo-1a,2,3,6,7,7a,8,9,10a,10b-decahydrooxireno[2′,3′:9,10]cyclodeca[1,2-b]furan-5-yl)methyl)octane-1,8-diyldicarbamate]?
Answer: Percent Growth (NCI-H522; Log10 Concentration −8.0): 86%; GI50 (NCI-H522; molar): 186 nM; TGI (NCI-H522; molar): 4.07E−7; CC50 (NCI-H522; read-out: LC50, molar): 893 nM; Percent Growth (OVCAR-5; Log10 Concentration −4.0): −77%; Percent Growth (OVCAR-5; Log10 Concentration −5.0): −80%; Percent Growth (OVCAR-5; Log10 Concentration −6.0): −4%; Percent Growth (OVCAR-5; Log10 Concentration −7.0): 91%; Percent Growth (OVCAR-5; Log10 Concentration −8.0): 92%; GI50 (OVCAR-5; molar): 269 nM; TGI (OVCAR-5; molar): 9.12E−7; CC50 (OVCAR-5; read-out: LC50, molar): 4040 nM; Percent Growth (U251; Log10 Concentration −4.0): −77%; Percent Growth (U251; Log10 Concentration −5.0): −79%; Percent Growth (U251; Log10 Concentration −6.0): −18%; Percent Growth (U251; Log10 Concentration −7.0): 91%; Percent Growth (U251; Log10 Concentration −8.0): 96%; GI50 (U251; molar): 578 nM; TGI (U251; molar): 2.00E−6; CC50 (U251; read-out: LC50, molar): 5130 nM; Percent Growth (LOX IMVI; Log10 Concentration −4.0): −81%; Percent Growth (LOX IMVI; Log10 Concentration −5.0): −90%; Percent Growth (LOX IMVI; Log10 Concentration −6.0): −69%; Percent Growth (LOX IMVI; Log10 Concentration −7.0): 90%; Percent Growth (LOX IMVI; Log10 Concentration −8.0): 98%; GI50 (LOX IMVI; molar): 178 nM; CC50 (LOX IMVI; read-out: LC50, molar): 761 nM; Percent Growth (SK-MEL-5; Log10 Concentration −4.0): −87%; Percent Growth (SK-MEL-5; Log10 Concentration −5.0): −89%; Percent Growth (SK-MEL-5; Log10 Concentration −6.0): 63%; Percent Growth (SK-MEL-5; Log10 Concentration −7.0): 95%; Percent Growth (SK-MEL-5; Log10 Concentration −8.0): 99%; GI50 (SK-MEL-5; molar): 1210 nM; TGI (SK-MEL-5; molar): 2.59E−6; CC50 (SK-MEL-5; read-out: LC50, SK-MEL-6, molar): 5530 nM; Percent Growth (786-0; Log10 Concentration −4.0): −81%; Percent Growth (786-0; Log10 Concentration −5.0): −81%; Percent Growth (786-0; Log10 Concentration −6.0): −32%; Percent Growth (786-0; Log10 Concentration −7.0): 95%; Percent Growth (786-0; Log10 Concentration −8.0): 95%; GI50 (786-0; molar): 244 nM; CC50 (786-0; read-out: LC50, molar): 2930 nM; Percent Growth (SNB-75; Log10 Concentration −4.0): −100%; Percent Growth (SNB-75; Log10 Concentration −5.0): −51%; Percent Growth (SNB-75; Log10 Concentration −6.0): 61%; Percent Growth (SNB-75; Log10 Concentration −7.0): 78%; Percent Growth (SNB-75; Log10 Concentration −8.0): 72%; GI50 (SNB-75; molar): 1250 nM; CC50 (SNB-75; read-out: LC50, molar): 9840 nM; Percent Growth (DU-145; Log10 Concentration −4.0): −100%; Percent Growth (DU-145; Log10 Concentration −5.0): −99%; Percent Growth (DU-145; Log10 Concentration −6.0): 56%; Percent Growth (DU-145; Log10 Concentration −7.0): 105%; Percent Growth (DU-145; Log10 Concentration −8.0): 103%; GI50 (DU-145; molar): 1100 nM; TGI (DU-145; molar): 2.30E−6; CC50 (DU-145; read-out: LC50, molar): 4810 nM; Percent Growth (NCI-H460; Log10 Concentration −4.0): −64%; Percent Growth (NCI-H460; Log10 Concentration −5.0): −56%; Percent Growth (NCI-H460; Log10 Concentration −6.0): 84%; Percent Growth (NCI-H460; Log10 Concentration −7.0): 102%; Percent Growth (NCI-H460; Log10 Concentration −8.0): 104%; GI50 (NCI-H460; molar): 1750 nM; TGI (NCI-H460; molar): 3.98E−6; CC50 (NCI-H460; read-out: LC50, molar): 9020 nM; Percent Growth (CAKI-1; Log10 Concentration −4.0): −99%; Percent Growth (CAKI-1; Log10 Concentration −5.0): −93%; Percent Growth (CAKI-1; Log10 Concentration −6.0): 41%; Percent Growth (CAKI-1; Log10 Concentration −7.0): 92%; Percent Growth (CAKI-1; Log10 Concentration −8.0): 94%; GI50 (CAKI-1; molar): 557 nM; CC50 (CAKI-1; read-out: LC50, molar): 4790 nM; Percent Growth (RPMI-8226; Log10 Concentration −4.0): −38%; Percent Growth (RPMI-8226; Log10 Concentration −5.0): −45%; Percent Growth (RPMI-8226; Log10 Concentration −6.0): −13%; Percent Growth (RPMI-8226; Log10 Concentration −7.0): 92%; Percent Growth (RPMI-8226; Log10 Concentration −8.0): 98%; GI50 (RPMI-8226; molar): 250 nM; TGI (RPMI-8226; molar): 7.45E−7; CC50 (RPMI-8226; read-out: LC50, molar): > 100000 nM; Percent Growth (HOP-92; Log10 Concentration −4.0): −88%; Percent Growth (HOP-92; Log10 Concentration −5.0): −92%; Percent Growth (HOP-92; Log10 Concentration −6.0): −26%; Percent Growth (HOP-92; Log10 Concentration −7.0): 75%; Percent Growth (HOP-92; Log10 Concentration −8.0): 87%; GI50 (HOP-92; molar): 177 nM; TGI (HOP-92; molar): 5.51E−7; CC50 (HOP-92; read-out: LC50, molar): 2290 nM
